Structures can show the parent of a compound that is named as a salt.
Columns and labels:
Format in all cases: in vivo
[1] = system: spontaneous breast cancer rat cells (SST-2); test: Lung metastasis of SST-2 in SHR rats, ascorbic acid derivative combined with known anticancer agent (Example 4)
[2] = system: spontaneous breast cancer rat cells (SST-2); test: as above; remark: listed apart in the source
Protocol: 1×100,000 spontaneous breast cancer rat cells (SST-2) were subcutaneously implanted into the back of a rat (SHR rat) (5 rats per group) suffering from spontaneous hypertension. After 35 days, the rats were sacrificed, and the number of colonies formed were measured to examine the degree of metastasis of SST-2 to the lung.
The ascorbic acid derivatives used were L-ascorbic acid-2-phosphate-6-palmitate, L-ascorbic acid-6-benzoate (reference compound) and magnesium L-ascorbic acid-2-phosphate.
Each of the groups treated with an ascorbic acid derivative was subjected to a test of administering the ascorbic acid derivative alone and to a test of administering the ascorbic acid derivative in combination with a known anticancer agent as shown in Table 4. Furthermore, tests of administering the anticancer agents alone were conducted. Over the period of from 7 days prior to implantation to 34 days after the implantation, the ascorbic acid derivative was injected through a vein in the tail region at a dose of 1 mg/1 day/rat. Each of the known anticancer agents was perorally administered in a minimum dose by reference to the concentration for a single use case described in the publication, Tyakuhin Yoran (Medical Product Handbook), 4th Edition, pp. 1474-1509, Yakugyo Jiho-Sha (1989), and the number of colonies formed after metastasis was compared.

[3] = system: spontaneous breast cancer rat cells (SST-2); test: Lung metastasis of implanted SST-2 cells in SHR rats (Example 3); details: 35 days after implantation
Protocol: 1×100,000 spontaneous breast cancer rat cells (SST-2) were subcutaneously implanted into the back of a rat (SHR rat) (5 rats per group) suffering from spontaneous hypertension. After 35 days, the rats were sacrificed, and the lung weight and the number of colonies formed were measured to examine the degree of metastasis of SST-2 to the lung. The compounds shown in Tables 3 and 4 each was administered perorally or through subcutaneous injection in a dose of 1 mg/rat over the period from the day of implantation to 34 days after implantation. The number of colonies formed was compared with that in the control group not subjected to any treatment, to examine metastasis to the lung.

[4] = ascorbic acid derivative 1 mg/1 day/rat tail vein, day -7 to day 34, known anticancer agent perorally in minimum dose, colonies after 35 days

For `S=P(N1CC1)(N1CC1)N1CC1` [TIOTEBA], the “Cancer metastasis inhibitory effect of combination with L-Ascorbic Acid-2-Phosphate-6-Benzoate versus each agent alone” value [1, 4] was “+”, the “Cancer metastasis inhibitory effect of combination with L-Ascorbic Acid-6-Palmitate versus each agent alone” value [1, 4] was “−” and the “Cancer metastasis inhibitory effect of combination with L-Ascorbic Acid-2-Phosphate-6-Palmitate versus each agent alone” value [2, 4] was “+”.

With `CC(=O)O[C@@H]1C(=O)O[C@H]2[C@@H]1OC(=O)[C@@H]2OC(C)=O` [aceglatone] the “Cancer metastasis inhibitory effect of combination with L-Ascorbic Acid-2-Phosphate-6-Benzoate versus each agent alone” value [1, 4] was “+”, the “Cancer metastasis inhibitory effect of combination with L-Ascorbic Acid-6-Palmitate versus each agent alone” value [1, 4] was “−” and the “Cancer metastasis inhibitory effect of combination with L-Ascorbic Acid-2-Phosphate-6-Palmitate versus each agent alone” value [2, 4] was “+”.

In the case of `O=c1[nH]cc(F)c(=O)[nH]1` [fluorouracil], the “Cancer metastasis inhibitory effect of combination with L-Ascorbic Acid-2-Phosphate-6-Benzoate versus each agent alone” value [1, 4] is reported as “+”, the “Cancer metastasis inhibitory effect of combination with L-Ascorbic Acid-6-Palmitate versus each agent alone” value [1, 4] is reported as “−” and the “Cancer metastasis inhibitory effect of combination with L-Ascorbic Acid-2-Phosphate-6-Palmitate versus each agent alone” value [2, 4] is reported as “+”.

For `N.N.[Cl][Pt][Cl]` [cisplatin], the “Cancer metastasis inhibitory effect of combination with L-Ascorbic Acid-2-Phosphate-6-Benzoate versus each agent alone” value [1, 4] was “+”, the “Cancer metastasis inhibitory effect of combination with L-Ascorbic Acid-6-Palmitate versus each agent alone” value [1, 4] was “−” and the “Cancer metastasis inhibitory effect of combination with L-Ascorbic Acid-2-Phosphate-6-Palmitate versus each agent alone” value [2, 4] was “+”.

For `O=c1[nH]c(=O)n(C2CCCO2)cc1F` (centres unmarked) [tegaful], the “Cancer metastasis inhibitory effect of combination with L-Ascorbic Acid-2-Phosphate-6-Benzoate versus each agent alone” value ([1]; rat, in vivo) was “+”, the “Cancer metastasis inhibitory effect of combination with L-Ascorbic Acid-6-Palmitate versus each agent alone” value ([1]; rat, in vivo) was “−” and the “Cancer metastasis inhibitory effect of combination with L-Ascorbic Acid-2-Phosphate-6-Palmitate versus each agent alone” value ([2]; rat, in vivo) was “+”.

For `O[C@@H]([C@H](O)[C@H](O)CBr)[C@H](O)CBr` [MITOPURNITOL], the “Cancer metastasis inhibitory effect of combination with L-Ascorbic Acid-2-Phosphate-6-Benzoate versus each agent alone” value [1, 4] was “+”, the “Cancer metastasis inhibitory effect of combination with L-Ascorbic Acid-6-Palmitate versus each agent alone” value [1, 4] was “−” and the “Cancer metastasis inhibitory effect of combination with L-Ascorbic Acid-2-Phosphate-6-Palmitate versus each agent alone” value [2, 4] was “+”.

For `CC[C@]1(O)C[C@@H]2CN(CCc3c([nH]c4ccccc34)[C@@](C(=O)OC)(c3cc4c(cc3OC)N(C)[C@H]3[C@@](O)(C(=O)OC)[C@H](OC(C)=O)[C@]5(CC)C=CCN6CC[C@]43[C@@H]65)C2)C1` [vinblastine sulfate], the “Cancer metastasis inhibitory effect of combination with L-Ascorbic Acid-2-Phosphate-6-Benzoate versus each agent alone” value [1, 4] was “+”, the “Cancer metastasis inhibitory effect of combination with L-Ascorbic Acid-6-Palmitate versus each agent alone” value [1, 4] was “−” and the “Cancer metastasis inhibitory effect of combination with L-Ascorbic Acid-2-Phosphate-6-Palmitate versus each agent alone” value [2, 4] was “+”.

For `COC(COC(N)=O)C1=C(N2CC2)C(=O)C(C)=C(N2CC2)C1=O` (centres unmarked) [CARBOCON], the “Cancer metastasis inhibitory effect of combination with L-Ascorbic Acid-2-Phosphate-6-Benzoate versus each agent alone” value [1, 4] was “+”, the “Cancer metastasis inhibitory effect of combination with L-Ascorbic Acid-6-Palmitate versus each agent alone” value [1, 4] was “−” and the “Cancer metastasis inhibitory effect of combination with L-Ascorbic Acid-2-Phosphate-6-Palmitate versus each agent alone” value [2, 4] was “+”.

In the case of `S=c1nc[nH]c2nc[nH]c12` [meercaptopurine], the “Cancer metastasis inhibitory effect of combination with L-Ascorbic Acid-2-Phosphate-6-Benzoate versus each agent alone” value ([1]; rat, in vivo) is reported as “+”, the “Cancer metastasis inhibitory effect of combination with L-Ascorbic Acid-6-Palmitate versus each agent alone” value ([1]; rat, in vivo) is reported as “−” and the “Cancer metastasis inhibitory effect of combination with L-Ascorbic Acid-2-Phosphate-6-Palmitate versus each agent alone” value ([2]; rat, in vivo) is reported as “+”.

With `CCCCCCNC(=O)n1cc(F)c(=O)[nH]c1=O` [carmofur] the “Cancer metastasis inhibitory effect of combination with L-Ascorbic Acid-2-Phosphate-6-Benzoate versus each agent alone” value [1, 4] was “+”, the “Cancer metastasis inhibitory effect of combination with L-Ascorbic Acid-6-Palmitate versus each agent alone” value [1, 4] was “−” and the “Cancer metastasis inhibitory effect of combination with L-Ascorbic Acid-2-Phosphate-6-Palmitate versus each agent alone” value [2, 4] was “+”.

`O=C1O[C@H]([C@@H](O)CO)C(O)=C1OS(=O)(=O)[O-].[Na+]` [Sodium L-ascorbic acid-2-sulfate] was tested, and the “Number of Metastasis Colonies (average), Peroral Administration” value ([3]; 1 mg/rat perorally from day of implantation to day 34) was 86.2 and the “Number of Metastasis Colonies (average), Subcutaneous Injection” value ([3]; 1 mg/rat subcutaneous injection from day of implantation to day 34) was 85.4.

For `CS(=O)(=O)OCCCNCCCOS(C)(=O)=O.Cc1ccc(S(=O)(=O)O)cc1` [Protecton (R)], the “Cancer metastasis inhibitory effect of combination with L-Ascorbic Acid-2-Phosphate-6-Benzoate versus each agent alone” value [1, 4] was “+”, the “Cancer metastasis inhibitory effect of combination with L-Ascorbic Acid-6-Palmitate versus each agent alone” value [1, 4] was “−” and the “Cancer metastasis inhibitory effect of combination with L-Ascorbic Acid-2-Phosphate-6-Palmitate versus each agent alone” value [2, 4] was “+”.

`COc1cccc2c1C(=O)c1c(O)c3c(c(O)c1C2=O)C[C@@](O)(C(C)=O)C[C@@H]3O[C@H]1C[C@H](N)[C@H](O)[C@H](C)O1` [daunorubicin hydrochloride] was tested, and the “Cancer metastasis inhibitory effect of combination with L-Ascorbic Acid-2-Phosphate-6-Benzoate versus each agent alone” value ([1]; rat, in vivo) was “+”, the “Cancer metastasis inhibitory effect of combination with L-Ascorbic Acid-6-Palmitate versus each agent alone” value ([1]; rat, in vivo) was “−” and the “Cancer metastasis inhibitory effect of combination with L-Ascorbic Acid-2-Phosphate-6-Palmitate versus each agent alone” value ([2]; rat, in vivo) was “+”.

With `CO[C@@H]1[C@H](O)C[C@@H](O[C@@H]2C[C@H](Oc3cc4cc5c(c(O)c4c(O)c3C)C(=O)[C@@H](O[C@H]3C[C@@H](O[C@H]4C[C@@H](O[C@H]6C[C@](C)(O)[C@@H](OC(C)=O)[C@H](C)O6)[C@H](O)[C@@H](C)O4)[C@H](O)[C@@H](C)O3)[C@H]([C@H](OC)C(=O)[C@@H](O)[C@@H](C)O)C5)O[C@H](C)[C@@H]2OC(C)=O)O[C@@H]1C` [chromomycin A3] the “Cancer metastasis inhibitory effect of combination with L-Ascorbic Acid-2-Phosphate-6-Benzoate versus each agent alone” value [1, 4] was “+”, the “Cancer metastasis inhibitory effect of combination with L-Ascorbic Acid-6-Palmitate versus each agent alone” value [1, 4] was “−” and the “Cancer metastasis inhibitory effect of combination with L-Ascorbic Acid-2-Phosphate-6-Palmitate versus each agent alone” value [2, 4] was “+”.
